Results published in patent US20210139507A1, “FUSED PYRIDINES WHICH ACT AS INHIBITORS OF H PGDS” (GlaxoSmithKline Intellectual Property Development Limited, priority 2017, published 2021).

Molecular target: T1, hematopoietic prostaglandin D synthase (H-PGDS) (Homo sapiens, UniProt O60760)
T1 construct: Full length human H-PGDS cDNA (Invitrogen Ultimate ORF IOH13026) was amplified by PCR; 6-His (N); TEV protease cleavage site (N); made in house; host or cells: E. coli BL21 (DE3*), vector pET22b+
T1 sequence (O60760 whole entry): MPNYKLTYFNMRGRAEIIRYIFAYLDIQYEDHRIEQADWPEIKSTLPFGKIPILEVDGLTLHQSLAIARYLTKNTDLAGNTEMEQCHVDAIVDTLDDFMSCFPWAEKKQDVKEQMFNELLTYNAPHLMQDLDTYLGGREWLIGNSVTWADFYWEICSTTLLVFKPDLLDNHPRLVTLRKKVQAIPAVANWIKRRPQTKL
Test: H-PGDS RapidFire High Throughput Mass Spectrometry Assay
Assay type: biochemical
Conditions: conversion of PGH2 to PGD2 by human H-PGDS, 10 nM enzyme; for IC50: mean pIC50, read-out: Potency Range (mean pIC50) (converted)
Procedure: The H-PGDS RapidFire™ mass spectrometric assay monitors conversion of prostaglandin H2 (PGH2) to prostaglandin D2 (PGD2) by hematopoietic prostaglandin D synthase (H-PGDS). In the assay format described here, the substrate (PGH2) is formed in situ by the action of cyclooxygenase-2 on arachidonic acid. This first step is set up to be fast, and generates a burst of PGH2 at ˜10 μM. The PGH2 is then further converted to PGD2 by the H-PGDS enzyme. […] Plates are then read on the RapidFire™ high throughput solid phase extraction system (Agilent) which incorporates a solid phase extraction step coupled to a triple quadrupole mass spectrometer (AB SCIEX). Relative levels of PGD2 and PGF2α, which acts as a surrogate for substrate, are measured and a percent conversion calculated. Inhibitors are characterized as compounds which lower the conversion of PGH2 to PGD2.
Full length human H-PGDS cDNA (Invitrogen Ultimate ORF IOH13026) was amplified by PCR with the addition of a 5′ 6-His tag and TEV protease cleavage site. The PCR product was digested with NdeI and XhoI and ligated into pET22b+ (Merck Novagen®). Expression was carried out in E. coli strain BL21 (DE3*) using auto-induction Overnight Express™ Instant TB medium (Merck Novagen®) supplemented with 1% glycerol. The culture was first grown at 37° C. and the temperature was reduced to 25° C. when OD600 reached 2.0. Cells were harvested by centrifugation after a further 18 hours. 10 g of E. coli cell pellet was suspended to a total volume of 80 mL in lysis buffer (20 mM Tris-Cl pH 7.5, 300 mM NaCl, 20 mM imidazole, 5 mM β-mercaptoethanol, 10% glycerol). 1 mg/mL protease inhibitors (Protease Inhibitor Cocktail Set III, Merck Calbiochem®) and 1 mg/mL lysozyme were added to the cell suspension. The suspension was then sonicated for 5 min (Ultrasonic Processor VCX 750, Cole-Parmer Instrument Co.) with a micro probe (50% amplitude, 10 sec on/off) and then centrifuged at 100,000 g for 90 minutes (at 4° C.). The supernatant was loaded onto a Ni-NTA HiTrap column (5 mL, GE Healthcare, pre-equilibrated in lysis buffer). The column was washed with 10 column volumes of lysis buffer and eluted with lysis buffer containing 500 mM imidazole. The pooled protein peak fractions were concentrated using a 10 kDa centrifugal filter at 3500 g and 4° C. (Amicon Ultra-15 centrifugal filter unit with Ultracel-10 membrane from Millipore). Further purification of the concentrated protein was carried out using gel filtration chromatography on a HiLoad 26/600 Superdex75 preparative grade column (GE Healthcare Life Sciences) using 50 mM Tris pH 7.5, 50 mM NaCl, 1 mM dithiothreitol, 1 mM MgCl2. Fractions containing the protein were pooled, concentrated as described above, and stored at −80° C.
The full length human COX-2 gene (accession number L15326) was amplified by PCR to generate an EcoRI-Hindi 11 fragment containing an in-frame FLAG tag. This was subcloned into pFastBac 1 (Invitrogen). The COX-2 FLAG plasmid was recombined into the baculovirus genome according to the BAC-to-BAC protocol described by Invitrogen. Transfection into Spodoptera frugiperda (Sf9) insect cells was performed using Cellfectin (Invitrogen), according to the manufacturer's protocol. Super Sf9 cells were cultured in EX420 media (SAFC Biosciences) to a density of approximately 1.5×10^6 cells/mL within a wave bioreactor. Recombinant virus was added at a Multiplicity of Infection (MOI) of 5 and the culture was allowed to continue for 3 days. Cells were harvested using a continuous feed centrifuge run at 2500 g at a rate of approximately 2 L/min with cooling. The resultant cell slurry was re-centrifuged in pots (2500 g, 20 min, 4° C.) and the cell paste was stored at −80° C. 342 g of cell paste was re-suspended to a final volume of 1600 mL in a buffer of 20 mM Tris-Cl pH 7.4, 150 mM NaCl, 0.1 mM EDTA, 1.3% w/v n-octyl-β-D-glucopyranoside containing 20 Complete EDTA-free Protease Inhibitor Cocktail tablets (Roche Applied Science). […]

Row | Compound | Potency Range (mean pIC50) | IC50 [nM]
1 | 2-Cyclopropyl-N-((3R,6S)-6-(2-hydroxypropan-2-yl)tetrahydro-2H-pyran-3-yl)thiazolo[4,5-b]pyridine-6-carboxamide and 2-Cyclopropyl-N-((3S,6R)-6-(2-hydroxypropan-2-yl)tetrahydro-2H-pyran-3-yl)thiazolo[4,5-b]pyridine-6-carboxamide [Example 24] | ** (** = pIC50 6.0-7.0) | –
2 | CS(=O)(=O)CC(O)[C@H]1CC[C@H](NC(=O)c2cnc3nc(C4CC4)sc3c2)CC1 (mixture of isomers) [Example 28, Racemic 2-cyclopropyl-N-(trans-4-(1-hydroxy-2-(methylsulfonyl)ethyl)cyclohexyl)thiazolo[4,5-b]pyridine-6-carboxamide] | – | 100 to 1000
3 | O=C(N[C@H]1CC[C@H](C(O)C(F)(F)F)CC1)c1cnc2nc(C3CC3)sc2c1 (mixture of isomers) [Example 32, Racemic 2-Cyclopropyl-N-(trans-4-(2,2,2-trifluoro-1-hydroxyethyl)cyclohexyl)thiazolo[4,5-b]pyridine-6-carboxamide] | – | 10 to 79.4
4 | CC(C)(O)C1CC2(CC(NC(=O)c3cnc4nc(C5CC5)sc4c3)C2)C1 (racemic) [Example 15, (Racemic)-2-cyclopropyl-N-(6-(2-hydroxypropan-2-yl)spiro[3.3]heptan-2-yl)thiazolo[4,5-b]pyridine-6-carboxamide] | – | 10 to 79.4
5 | O=C(NC1C[C@H](O)C[C@@H](O)C1)c1cnc2nc(C3CC3)sc2c1 (mixture of isomers) [Example 41, Racemic 2-cyclopropyl-N-((3S,5S)-3,5-dihydroxycyclohexyl)thiazolo[4,5-b]pyridine-6-carboxamide] | – | 100 to 1000
6 | CC(N[C@H]1CC[C@H](NC(=O)c2cnc3nc(C4CC4)sc3c2)CC1)C(F)F (relative stereo) [Example 23, 2-Cyclopropyl-N-(trans-4-((1,1-difluoropropan-2-yl)amino)cyclohexyl)thiazolo[4,5-b]pyridine-6-carboxamide] | – | 100 to 1000
7 | O=C(N[C@H]1CC[C@H](C(O)C2CC2)CC1)c1cnc2nc(C3CC3)sc2c1 (relative stereo) [Example 26, 2-Cyclopropyl-N-(trans-4-(cyclopropyl(hydroxy)methyl)cyclohexyl)thiazolo[4,5-b]pyridine-6-carboxamide] | – | 10 to 79.4
8 | CC(C)(O)[C@H]1CC2(C[C@H](NC(=O)c3cnc4nc(C5CC5)sc4c3)C2)C1 (single isomer, unassigned) [Example 42] | – | 10 to 79.4
9 | CC(C)(O)[C@H]1CC[C@H](NC(=O)c2cnc3cc(Br)sc3c2)CC1 [Example 1] | – | 100 to 1000
10 | CC(C)(O)[C@H]1CC[C@H](NC(=O)c2cnc3cc(C4CC4)sc3c2)CC1 [Example 2] | – | 10 to 79.4
11 | C[C@]1(O)C[C@@H](NC(=O)c2cnc3cc(Br)sc3c2)C1 [Example 3] | – | 1260 to 10000
12 | C[C@]1(O)C[C@@H](NC(=O)c2cnc3cc(C4CC4)sc3c2)C1 [Example 4] | – | 1260 to 10000
13 | CC(C)Nc1nc2ncc(C(=O)N[C@H]3CC[C@H](C(C)(C)O)CC3)cc2s1 [Example 5] | – | 100 to 1000
14 | CC(C)N(C)c1nc2ncc(C(=O)N[C@H]3CC[C@H](C(C)(C)O)CC3)cc2s1 [Example 6] | – | 10 to 79.4
15 | CNc1nc2ncc(C(=O)N[C@H]3CC[C@H](C(C)(C)O)CC3)cc2s1 [Example 7] | – | 100 to 1000
16 | CN(C)c1nc2ncc(C(=O)N[C@H]3CC[C@H](C(C)(C)O)CC3)cc2s1 [Example 9] | – | 10 to 79.4
17 | CC(C)(O)C12CC(NC(=O)c3cnc4cc(Br)sc4c3)(C1)C2 [Example 11, 2-Bromo-N-(3-(2-hydroxypropan-2-yl)bicyclo[1.1.1]pentan-1-yl)thieno[3,2-b]pyridine-6-carboxamide] | – | 100 to 1000
18 | CC(C)(O)C12CC(NC(=O)c3cnc4cc(C5CC5)sc4c3)(C1)C2 [Example 12, 2-Cyclopropyl-N-(3-(2-hydroxypropan-2-yl)bicyclo[1.1.1]pentan-1-yl)thieno[3,2-b]pyridine-6-carboxamide] | – | 10 to 79.4
19 | CC(C)(O)C12CC(NC(=O)c3cnc4nc(C5CC5)sc4c3)(C1)C2 [Example 13, 2-Cyclopropyl-N-(3-(2-hydroxypropan-2-yl)bicyclo[1.1.1]pentan-1-yl)thiazolo[4,5-b]pyridine-6-carboxamide] | – | 100 to 1000
20 | CC(C)(O)[C@H]1CC[C@H](NC(=O)c2cnc3nc(C4CCC4)sc3c2)CC1 [Example 14, 2-Cyclobutyl-N-((trans)-4-(2-hydroxypropan-2-yl)cyclohexyl)thiazolo[4,5-b]pyridine-6-carboxamide] | – | 10 to 79.4
21 | O=C(N[C@H]1CC[C@H](O)CC1)c1cnc2nc(C3CC3)sc2c1 [Example 16, 2-Cyclopropyl-N-((trans)-4-hydroxycyclohexyl)thiazolo[4,5-b]pyridine-6-carboxamide] | – | 100 to 1000
22 | C[C@]1(O)CC[C@H](NC(=O)c2cnc3nc(C4CC4)sc3c2)CC1 [Example 17, 2-Cyclopropyl-N-((trans)-4-hydroxy-4-methylcyclohexyl)thiazolo[4,5-b]pyridine-6-carboxamide] | – | 1260 to 10000
23 | O=C(N[C@H]1CC[C@H](OCCO)CC1)c1cnc2nc(C3CC3)sc2c1 [Example 18, 2-Cyclopropyl-N-((trans)-4-(2-hydroxyethoxy)cyclohexyl)thiazolo[4,5-b]pyridine-6-carboxamide] | – | 100 to 1000
24 | O=C(N[C@H]1CCNC1=O)c1cnc2nc(C3CC3)sc2c1 [Example 19, (S)-2-Cyclopropyl-N-(2-oxopyrrolidin-3-yl)thiazolo[4,5-b]pyridine-6-carboxamide] | – | 100 to 1000
25 | O=C(N[C@H]1CC[C@H](CO)CC1)c1cnc2nc(C3CC3)sc2c1 [Example 20, 2-Cyclopropyl-N-((trans)-4-(hydroxymethyl)cyclohexyl)thiazolo[4,5-b]pyridine-6-carboxamide] | – | 100 to 1000
26 | O=C(N[C@H]1CC[C@H](N2CC(F)(F)C2)CC1)c1cnc2nc(C3CC3)sc2c1 [Example 21, 2-Cyclopropyl-N-((trans)-4-(3,3-difluoroazetidin-1-yl)cyclohexyl)thiazolo[4,5-b]pyridine-6-carboxamide] | – | 100 to 1000
27 | CC(C)(O)[C@H]1C[C@H](NC(=O)c2cnc3nc(C4CC4)sc3c2)C1 [Example 22, 2-Cyclopropyl-N-((trans)-3-(2-hydroxypropan-2-yl)cyclobutyl)thiazolo[4,5-b]pyridine-6-carboxamide] | – | 100 to 1000
28 | CC(C)(F)c1nc2ncc(C(=O)N[C@H]3CC[C@H](C(C)(C)O)CC3)cc2s1 [Example 25, 2-(2-Fluoropropan-2-yl)-N-(trans-4-(2-hydroxypropan-2-yl)cyclohexyl)thiazolo[4,5-b]pyridine-6-carboxamide] | – | 100 to 1000
29 | CC(C)(C)c1nc2ncc(C(=O)N[C@H]3CC[C@H](C(C)(C)O)CC3)cc2s1 [Example 27, 2-(tert-Butyl)-N-(trans-4-(2-hydroxypropan-2-yl)cyclohexyl)thiazolo[4,5-b]pyridine-6-carboxamide] | – | 100 to 1000
30 | CC(C)(O)[C@H]1CC[C@H](NC(=O)c2cnc3nc(N4CCC4)sc3c2)CC1 [Example 29, 2-(Azetidin-1-yl)-N-(trans-4-(2-hydroxypropan-2-yl)cyclohexyl)thiazolo[4,5-b]pyridine-6-carboxamide] | – | 100 to 1000
